Consider two compounds from US20030181449A1 (priority 2003, published 2003).

The target in data set [1] is T1, NMDA receptor glycine site (Rattus norvegicus, UniProt P35439).
T1 construct: The rat brain membranes used in the experiments were obtained from Analytical Biological Services Inc; tissue Analytical Biological Services Inc; host or cells: rat brain membranes (cerebral cortex and hippocampus, male Sprague Dawley rats)
The data set is described as follows: Test A: Inhibition of binding of [3H]-MDL105,519 to brain membranes. Particulars: inhibition of 1.2 nM [3H]MDL105,519 binding, brain membranes (rat or human not given). From the text: Test A: Inhibition of Binding of [^3H]-MDL105,519:
Binding of compounds to the NMDA receptor glycine site may be assessed by measuring the ability of test compounds to inhibit the binding of tritiated MDL105,519 to brain membranes bearing the receptor.
Briefly, fresh brain tissue including cerebral cortex and hippocampus from male Sprague Dawley rats was homogenized in 0.32 M sucrose and centrifuged at low speed to separate cellular membranes from other cellular components. The membranes were then washed 3 times using deionized water, followed by treatment with 0.04% Triton X-100. Finally, membranes were washed six times in 50 mM Tris citrate buffer, pH 7.4, and frozen at −80° C. until use.
[^3H]MDL105,519 (72 Ci/mmol) was purchased from Amersham. Cold MDL105,519 was purchased from Sigma/RBI. […] On the day of the experiment, brain membranes were thawed at room temperature and suspended in 50 mM tris acetate buffer, pH 7.4 (“TAB”). Seventy-five micro grams per milliliter protein (by using the BioRad dye) were used for competition binding. The experiments were carried out using 96-well plates. […] Non specific binding was determined by using 100 μM of unlabeled MDL105,519. […] After incubation, unbound [^3H]MDL105,519 was removed by filtration onto GF/B Unifilter plates using a Packard harvester. Filters were washed four times with ice cold TAB (total of 1.2 mL buffer). The plates were dried overnight at room temperature and bound radioactivity was measured on a Packard TopCount after the addition of 45 μL per well of the MICROSCINT O.
Human Brain Membranes: Human brain membranes were obtained from Analytical Biological Services Inc., and assays were performed as described for rat membranes.
Data analysis: Data was analyzed using a Microsoft Excel spreadsheet and GraphPad Prizm software and potency of compounds is expressed as the Ki (nM).

Data set [2] deals with formalin-induced nociceptive behaviors in rats. The data set can be described thus: Test B: Formalin test (formalin-induced paw flinches). Format: in vivo, rat. Particulars: dose 200 (unit not given), dosed three hours prior to formalin. From the text: The Formalin test is an assay that assesses the capacity of a compound to inhibit formalin-induced nociceptive behaviors in rats (D. Dubuisson, et al., Pain 4, 161-174 (1977); H. Wheeler-Aceto et al., Psychopharmacology 104, 3544 (1991); T. J. Coderre, et al., Pain 54, 43-50 (1993)). In the test, two distinctive phases of formalin-induced behaviors are observed. A first phase response, caused by acute nociception to the noxious chemical (formalin) injected into the paw, occurs between zero and five minutes. A quiescent period of 5 to 15 min post injection follows. After the quiescent period a second phase response, caused by sensitization of the central neurons in the dorsal horn, occurs after 15 minutes and lasts up to 60 minutes. Sensitization of the central neurons in the spine augments a noxious afferent input and causes a stronger pain barrage to be transmitted to the brain. Therefore, inhibition of the second phase response indicates a central mechanism of drug action.
The procedure for the formalin test is as follows: male rats are placed in a plexiglass chamber and observed for 30-45 min. to observe their baseline activity. Animals are either pretreated with vehicle or with different doses of a test compound. Animals are dosed with vehicle or test compound three hours prior to injection of 0.05 mL of sterile 1% formalin under the dorsal skin of a hind paw. The number of paw flinches (responses) during the first phase (0-5 min.) and the second phase (20-35 min.) are scored and recorded. Flinch response is compared with the mean score of a saline control group and calculated as percentage inhibition. The ED50 is the dose of compound which produces 50% inhibition of nociceptive response in the first or second phase response. First phase responses may be inhibited by compounds that act peripherally and by compounds that act centrally. Second phase response are inhibited by centrally active compounds.
Student's t-test was used for statistical analysis to determine the significance of compound effects. Data are reported as a dose that yielded a % inhibition of a response.

The test system of data set [3] is CCI rats (thermal hyperalgesia). The data set can be described thus: Test C: Neuropathic pain model (Chronic Constriction Injury), thermal hyperalgesia, paw withdrawal latency. To be noted: oral. It counts as in vivo, rat. An excerpt: Test C: Neuropathic Pain Model (Chronic Constriction Injury):
The anti-hyperalgesic properties of a compound may be tested with the Chronic Constriction Injury (“CCI”) model. The test is a model for neuropathic pain associated with nerve injuries that can arise directly from trauma and compression, or indirectly from a wide range of diseases such as infection, cancer, metabolic conditions, toxins, nutritional deficiencies, immunological dysfunction, and musculoskeletal changes. In the model a unilateral peripheral hyperalgesia is produced in rats by nerve ligation (G. J. Bennett, et al., Pain 33, 87-107 (1988)).
Procedurally, Sprague-Dawley rats (250-350 g) are anesthetized with sodium pentobarbital and the common sciatic nerve is exposed at the level of the mid thigh by blunt dissection through the biceps femoris. A section of nerve (about 7 mm), proximal to the sciatic trifucation, is freed of tissue and ligated at four positions with chromic gut suture. The suture is tied with about 1 mm spacing between ligatures. The incision is closed in layers and the animals are allowed to recuperate. Thermal hyperalgesia is measured using a paw-withdrawal test (K. Hargreaves, et al., Pain 32, 77-88 (1988)). To perform the test, animals are habituated on an elevated glass floor. A radiant heat source is aimed at the mid-plantar hindpaw (sciatic nerve territory) through the glass floor with a 20 second cut-off used to prevent injury to the skin. The latencies for the withdrawal reflex in both hind paws are recorded.
Injured paws with ligated nerves show shorter paw withdrawal latencies compared to the uninjured or sham operated paws. Responses to test compounds are evaluated at different times after oral administration to determine the onset and duration of compound effect. When performing the test, groups of CCI rats receive either vehicle or the test compound orally three times daily for 5 days. Paw withdrawal latencies are measured each day 10 min before and 2 or 3 hr. after the first daily dose. Compound efficacy is expressed as mean percentage decrease of hyperalgesia compared to that of vehicle-treated animals, calculated as follows:
(Mean of vehicle group−Mean of compound group)×100/(Mean of vehicle group).
Data analysis was performed by the multiple means comparison test (Dunnett's test) and results are expressed and compound potencies are expressed as the MED (minimum effective dose), in mg/Kg/day, that yields a percent (%) decrease in hyperalgesia that is statistically significant.

Regarding `Cc1cc(C)c(-n2nc(O)c3[nH]c4cc(Cl)ccc4c(=O)c3c2=O)c(C)c1` [Ex. 1, 7-Chloro-4-hydroxy-2-(2,4,6-trimethylphenyl)-1,2,5,10-tetrahydropyridazino[4,5-b]quinoline-1,10-dione], the melting point – broadly, the temperature of the solid-liquid transition – lay within 187 to 189 °C. Also, in data set [1], the affinity, expressed as Ki, was 39.9 nM. For the same compound, the “Test B First phase Dose (% Inh.): % inhibition of nociceptive response” value in data set [2] (first phase (0-5 min)) was 200 (43%). The “Test B Second phase Dose (% Inh.): % inhibition of nociceptive response” value in data set [2] (second phase (20-35 min)) is listed as 200 (54%). For the same compound, in data set [3] (at the MED), the “Test C (% Inh.): percent decrease in hyperalgesia” value amounted to 82%. The “Test C MED (minimum effective dose)” value in data set [3] (three times daily for 5 days) stood at 15 mg/kg/day.
Turning to `CSc1ccccc1Cn1nc(O)c2nc3cc(Cl)ccc3c(O)c2c1=O` [Ex. 7, 7-Chloro-4,10-dihydroxy-2-[(2-methylthio)phenylmethyl]-2-hydropyridazino[4,5-b]quinoline-1-one], the melting point was in the range of 290 to 292 °C. Moreover, the affinity in data set [1], expressed as Ki, was 111 nM.
